System: DOHH2 and TMD8 DLBCL cells
Experiment: Gene expression profiling (HumanHT-12 v4 BeadChip, limma), ST7612AA1 300 nM 8 hrs vs DMSO
Type: cell-based, human
Details: 300 nM 8 hrs vs DMSO

CC(=O)SCCCCC[C@H](NC(=O)[C@H]1CCC(=O)N1)C(=O)Nc1ccccc1 [ST7612AA1]
log ratio POGK (ILMN_1756669): -8.84E-01
log ratio POLR1C (ILMN_1746686): -8.40E-01
log ratio PPP1R13B (ILMN_1748831): 6.43E-01
log ratio PPP2R1A (ILMN_1810467): -5.99E-01
log ratio PPRC1 (ILMN_1796210): -1.03E+00
log ratio PRDM10 (ILMN_2352293): -8.83E-01
log ratio PRDX2 (probe ILMN_1767766): 8.35E-01
log ratio PRDX2 (probe ILMN_2382829): 7.41E-01
log ratio PRKAR1B (ILMN_1674390): -8.76E-01
log ratio PRKCB1 (ILMN_1806908): 6.12E-01
log ratio PRMT3 (ILMN_1662964): -1.23E+00
log ratio PSMB5 (ILMN_1744649): -9.34E-01
log ratio PSMB10 (ILMN_1683026): -8.38E-01
log ratio PSMG4 (ILMN_3224204): -5.99E-01
log ratio PTGER4 (probe ILMN_1795930): 9.03E-01
log ratio PTMS (ILMN_1721046): 6.73E-01
log ratio PTPN7 (ILMN_1715214): -6.16E-01
log ratio PTS (ILMN_2162328): -8.08E-01
log ratio PTTG1 (probe ILMN_1753196): 6.92E-01
log ratio PTTG1IP (ILMN_1802251): 6.45E-01
log ratio PTTG1IP (ILMN_2128750): 6.16E-01
log ratio PTTG3P (ILMN_2049021): 6.08E-01
log ratio QTRTD1 (ILMN_2155516): -7.99E-01
log ratio RAB8B (probe ILMN_2173004): 8.71E-01
log ratio RAB11FIP2 (ILMN_2072541): -5.92E-01
log ratio RAB11FIP5 (ILMN_1740604): 6.69E-01
log ratio RAB24 (probe ILMN_2379718): 7.77E-01
log ratio RABEPK (ILMN_1741957): -9.81E-01
log ratio RABGAP1 (probe ILMN_2061950): 6.86E-01
log ratio RAD9A (ILMN_1684183): 6.33E-01
log ratio RAN (ILMN_1757384): -8.66E-01
log ratio RAPGEF2 (probe ILMN_3247261): 8.54E-01
log ratio RASAL1 (probe ILMN_1793517): 7.10E-01
log ratio RASD2 (probe ILMN_2170209): 7.75E-01
log ratio RASGRP3 (ILMN_1727045): -9.48E-01
log ratio RASL10A (ILMN_1747673): 6.25E-01
log ratio RASSF2 (ILMN_1709683): -8.05E-01
log ratio RBM23 (ILMN_1780756): -8.92E-01
log ratio RBM23 (ILMN_2363106): -9.17E-01
log ratio RBM38 (ILMN_2404049): 6.27E-01
log ratio RCAN1 (ILMN_2367239): 6.08E-01
log ratio RCC2 (ILMN_1720124): -8.76E-01
log ratio REEP2 (probe ILMN_1666057): 6.85E-01
log ratio RFC1 (probe ILMN_2217935): 7.23E-01
log ratio RGS19 (ILMN_1677085): -9.37E-01
log ratio RHBDD2 (probe ILMN_1809437): 7.80E-01
log ratio RHBDD2 (probe ILMN_2406410): 8.04E-01
log ratio RHOBTB3 (probe ILMN_1744949): 8.25E-01
log ratio RHOC (probe ILMN_1673305): 9.02E-01
log ratio RIOK3 (ILMN_2404135): 5.99E-01
log ratio RNASE4 (probe ILMN_1776602): 7.33E-01
log ratio RND2 (probe ILMN_1736533): 7.06E-01
log ratio RNF24 (probe ILMN_1717809): 7.24E-01
log ratio RNF135 (ILMN_1700660): -6.19E-01
log ratio RNFT2 (ILMN_3299905): 6.00E-01
log ratio RPIA (ILMN_1714809): -9.23E-01
log ratio RPL29 (ILMN_1737517): -1.05E+00
log ratio RPL29 (ILMN_1771051): -1.03E+00
log ratio RPL36A (ILMN_2112811): -6.12E-01
log ratio RPP40 (ILMN_1810423): -1.07E+00
log ratio RPRD2 (ILMN_3238889): -7.98E-01
log ratio RPS6KA4 (ILMN_1756204): -7.98E-01
log ratio RRBP1 (ILMN_2360784): 6.39E-01
log ratio RRS1 (ILMN_1767658): -7.92E-01
log ratio RTN2 (probe ILMN_1749115): 8.60E-01
log ratio RTN3 (probe ILMN_2363065): 7.08E-01
log ratio S100A4 (ILMN_1688780): 6.50E-01
log ratio SALL2 (ILMN_1740842): 6.64E-01
log ratio SBK1 (probe ILMN_1728298): 8.80E-01
log ratio SCARNA11 (probe ILMN_3236010): 6.95E-01
log ratio SCARNA13 (probe ILMN_3235325): 7.18E-01
log ratio SCARNA14 (probe ILMN_3247636): 7.31E-01
log ratio SCARNA23 (ILMN_3243966): 6.49E-01
log ratio SCD5 (ILMN_2237428): 6.35E-01
log ratio SDCBP (probe ILMN_2363586): 8.86E-01
log ratio SDCBP (probe ILMN_2363591): 8.22E-01
log ratio SDHA (ILMN_1744210): 6.20E-01
log ratio SDHAP2 (probe ILMN_3248781): 7.07E-01
log ratio SEMA4D (probe ILMN_1687533): 7.86E-01
log ratio SEMA4F (probe ILMN_1805007): 7.51E-01
log ratio SENP6 (ILMN_2054233): -8.91E-01
log ratio SEPHS1 (ILMN_1673369): -1.31E+00
log ratio SEPHS1 (ILMN_2176768): -1.36E+00
log ratio SEPHS2 (ILMN_1687824): 6.78E-01
log ratio SERPINB9 (probe ILMN_1742052): 7.55E-01
log ratio SERPINI1 (probe ILMN_1814333): 7.79E-01
log ratio SESN1 (ILMN_1800626): 5.92E-01
log ratio SETMAR (ILMN_1682404): -7.84E-01
log ratio SFRS7 (ILMN_1778836): -6.07E-01
log ratio SFXN4 (ILMN_2363361): -9.20E-01
log ratio SGK (probe ILMN_1702487): 8.82E-01
log ratio SGSH (ILMN_2133675): 5.92E-01
log ratio SH3GLB2 (probe ILMN_2158336): 6.85E-01
log ratio SLC5A6 (ILMN_1741054): -9.72E-01
log ratio SLC7A1 (ILMN_1683859): -6.20E-01
log ratio SLC23A2 (probe ILMN_1746578): 7.82E-01
log ratio SLC25A4 (probe ILMN_1681670): 8.53E-01
log ratio SLC25A4 (probe ILMN_2211780): 7.98E-01
log ratio SLC25A13 (ILMN_1668012): -8.15E-01
log ratio SLC25A23 (probe ILMN_1679949): 7.04E-01
log ratio SLC35F2 (ILMN_2075189): -9.03E-01
log ratio SLC38A1 (ILMN_1769911): -9.30E-01
log ratio SLC38A5 (ILMN_1695058): -1.13E+00
log ratio SLC39A3 (ILMN_2234970): 6.58E-01
log ratio SLC39A10 (ILMN_1656129): -5.93E-01
log ratio SLC43A3 (ILMN_1658407): -9.67E-01
log ratio SLC43A3 (ILMN_2330307): -8.92E-01
log ratio SLC44A2 (probe ILMN_1771987): 7.92E-01
log ratio SLC45A3 (probe ILMN_1726114): 7.11E-01
log ratio SLFN11 (ILMN_2162860): 6.41E-01
log ratio SLFN11 (probe ILMN_1752520): 7.62E-01
log ratio SLTM (ILMN_1742224): -9.17E-01
log ratio SLTM (ILMN_2395204): -8.02E-01
log ratio SMG5 (ILMN_2126239): -9.35E-01
log ratio SNAP23 (probe ILMN_1687519): 8.74E-01
log ratio SNHG3-RCC1 (ILMN_1707493): -9.37E-01
log ratio SNORA76 (ILMN_3237562): -5.92E-01
log ratio SNORA80 (ILMN_3238554): 6.42E-01
log ratio SNORD31 (probe ILMN_2072391): 7.85E-01
log ratio SNORD65 (ILMN_3246353): -8.36E-01
log ratio SNUPN (ILMN_1733932): -7.98E-01
log ratio SNUPN (ILMN_2364535): -8.42E-01
log ratio SNX29 (ILMN_1659761): 6.78E-01
log ratio SORT1 (probe ILMN_1707077): 8.42E-01
log ratio SPAG1 (ILMN_2367681): 5.96E-01
log ratio SPAG7 (ILMN_1684446): -8.14E-01
log ratio SPAG9 (ILMN_1799104): 6.26E-01
log ratio SPAG9 (probe ILMN_2263718): 7.33E-01
log ratio SPI1 (ILMN_2392043): -6.03E-01
log ratio SPINT2 (probe ILMN_1800739): 8.11E-01
log ratio SPRY1 (ILMN_2329914): 6.03E-01
log ratio SREBF1 (probe ILMN_1663035): 7.22E-01
log ratio SRGN (probe ILMN_1760347): 7.62E-01
log ratio SRGN (probe ILMN_2169152): 7.60E-01
log ratio SRP72 (ILMN_1683888): -5.90E-01
log ratio SSPN (ILMN_1775486): -1.34E+00
log ratio STAG2 (ILMN_1782609): -9.17E-01
log ratio STARD10 (probe ILMN_1717052): 8.01E-01
log ratio STK17B (probe ILMN_1798543): 7.91E-01
log ratio STMN3 (probe ILMN_3244117): 9.01E-01
log ratio STX3 (probe ILMN_1659544): 8.71E-01
log ratio SUMO3 (ILMN_1725642): -9.81E-01
log ratio SUSD3 (probe ILMN_1785570): 8.58E-01
log ratio SYNGR1 (ILMN_1810875): 6.25E-01
log ratio TACC1 (probe ILMN_1770084): 7.64E-01
log ratio TACO1 (ILMN_1685112): -6.19E-01
log ratio TADA1L (ILMN_1776487): -6.14E-01
log ratio TANK (probe ILMN_1715069): 8.21E-01
log ratio TBC1D7 (probe ILMN_1661622): 7.33E-01
log ratio TBC1D16 (probe ILMN_1758457): 7.24E-01
